Laboratory results reported in US8420670B2 (Abbott Laboratories, priority 2007, dated 2013).
Structures can show the parent of a compound that is named as a salt.

Columns and labels:
[1] = target: T1, human GlyT1c transporter (Homo sapiens, UniProt P48067); test: [3H]-(R)-NPTS radioligand binding assay using recombinant hGlyT1 expressing cell membranes; conditions: 0.5 nM [3H]-(R)-NPTS, apparent Ki via Cheng-Prusoff, read-out: [3H]-(R)-NPTS bindung Ki
T1 construct: expressed in transfected cells; host or cells: recombinant hGlyT1-expressing cells
T1 sequence (P48067 1-706): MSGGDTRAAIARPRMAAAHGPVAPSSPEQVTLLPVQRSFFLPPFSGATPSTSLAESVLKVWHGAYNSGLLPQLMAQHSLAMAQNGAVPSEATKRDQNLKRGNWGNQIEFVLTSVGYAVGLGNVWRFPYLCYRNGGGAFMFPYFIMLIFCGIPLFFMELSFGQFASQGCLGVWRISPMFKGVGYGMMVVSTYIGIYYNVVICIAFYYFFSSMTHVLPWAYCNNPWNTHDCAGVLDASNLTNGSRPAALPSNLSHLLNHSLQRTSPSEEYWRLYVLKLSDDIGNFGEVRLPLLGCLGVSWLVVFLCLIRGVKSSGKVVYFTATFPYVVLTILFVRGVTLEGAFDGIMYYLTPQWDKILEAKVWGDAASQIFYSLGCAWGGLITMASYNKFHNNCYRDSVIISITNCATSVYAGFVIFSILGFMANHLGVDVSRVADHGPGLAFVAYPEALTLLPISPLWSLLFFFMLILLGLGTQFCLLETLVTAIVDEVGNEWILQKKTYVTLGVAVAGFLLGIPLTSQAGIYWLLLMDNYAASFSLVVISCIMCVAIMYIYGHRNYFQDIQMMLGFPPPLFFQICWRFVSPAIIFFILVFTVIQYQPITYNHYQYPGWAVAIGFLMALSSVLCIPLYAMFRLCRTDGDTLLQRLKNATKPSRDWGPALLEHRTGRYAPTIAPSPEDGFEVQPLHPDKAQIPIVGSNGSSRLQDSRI
Method: 2. [^3H]-(R)-NPTS Radioligand Binding Assays using Recombinant hGlyT1 Expressing Cell Membranes:
Radioligand binding to human GlyT1c transporter-expressing membranes was measured in duplicate in a total volume of 200 μl in 96-well plates. To 100 μl of membrane suspension (yielding a final membrane protein concentration of 50 μg/ml) in assay buffer (120 mM NaCl, 2 mM KCl, 10 mM Hepes, 1 mM MgCl2, 1 mM CaCl2, pH 7.5) […] of [^3H]-(R)NPTS (0.5 nM final) were added in assay buffer. For competition experiments 10 μl of buffer or unlabeled compound solution obtained from dilution series of test compounds in DMSO followed. An intermediate 1:10 dilution in assay buffer yielded a final DMSO concentration of 1%. Non-specific binding was determined in the presence of 10 μM Org24598 (or its racemate Org24461) for [^3H]-(R)-NPTS. After incubation at room temperature for 1 h, the incubation mixture was harvested (Tomtec Mach III U Harvester) through 96-well GF/B filter plates (PerkinElmer), presoaked for 1 h with 40 μl per well of 0.1% polyethylene-imine (PEI). After washing twice with ice-cold 50 mM Tris-HCl pH 7.4 buffer, drying and addition of 35 μl scintillator (BetaplateScint, PerkinElmer) per well followed. The radioactivity was determined by liquid scintillation spectrometry in a MicroBeta (PerkinElmer) plate counter.
Data analysis: For binding of [^3H]-(R)-NPTS to cell membranes, the calculation of Kd and Bmax values from the saturation binding assays and the IC50 values from the displacement binding was performed by iterative non-linear regression analysis adapted from the ‘Ligand’ program (Munson and Rodbard, 1980). Radioligand displacement curves in absence or in presence of increasing concentrations of tested compounds were fitted using a one-site fit and the apparent Ki values were calculated from the IC50 values using the Cheng-Prusoff equation (Cheng and Prusoff 1973).

[2] = target: T2, Human GlyT1c (Homo sapiens, UniProt P48067); test: Glycine uptake in recombinant hGlyT1 expressing cells; format: cell-based; conditions: hGlyT1c_5_CHO cells; [3H]-glycine uptake, 60-120 min
T2 construct: expressed in transfected cells; host or cells: CHO (hGlyT1c_5_CHO clone)
T2 sequence (P48067 1-706): T1 sequence (P48067 1-706)
Method: 1. Glycine Uptake in Recombinant hGlyT1 Expressing Cells:
Human GlyT1c expressing recombinant hGlyT1c—5_CHO cells were plated at 20,000 cells per well in 96 well Cytostar-T scintillation microplates (Amersham Biosciences) and cultured to sub-confluency for 24 h. For glycine uptake assays the culture medium was aspirated and the cells were washed once with 100 μl HBSS (Gibco BRL, #14025-050) with 5 mM L-Alanine (Merck #1007). 80 μl HBSS buffer were added, followed by 10 μl inhibitor or vehicle (10% DMSO) and 10 μl [^3H]-glycine (TRK71, Amersham Biosciences) to a final concentration of […] for initiation of glycine uptake. The plates were placed in a Wallac Microbeta (PerkinElmer) and continuously counted by solid phase scintillation spectrometry during up to 3 hours. Nonspecific uptake was determined in the presence of 10 μM Org24598. IC50 calculations were made by four-parametric logistic nonlinear regression analysis (GraphPad Prism) using determinations within the range of linear increase of [^3H]-glycine incorporation between 60 and 120 min.

SMILES | Ki [1] | IC50 [2]
C=CCN1CCCC[C@H]1[C@@H](Nc1cc(C)nc2ccccc12)c1ccccc1 [Example 59, [(S)—((S)-1-Allylpiperidin-2-yl)-phenylmethyl]-(2-methylquinolin-4-yl)-amine] | ≤ 10 µM | ≤ 100 µM
CCCOc1cccc2c(NCc3ccc(C(F)(F)F)c(Cl)c3)cc(C)nc12 [Example 45, (3-Chloro-4-trifluoromethylbenzyl)-(2-methyl-8-propoxyquinoline-4-yl)-amine hydrochloride] | ≤ 10 µM | ≤ 10 µM
Cc1cc(N[C@@H](c2ccccc2)[C@@H]2CCCCN2C)c2ccccc2n1 [Example 61, (S)—((S)-1-Methylpiperidin-2-yl)-phenylmethyl]-(2-methylquinolin-4-yl)-amine dihydrochloride] | ≤ 10 µM | ≤ 10 µM
Cc1cc(NCc2ccc(Cl)c(Cl)c2)c2cccc(S(N)(=O)=O)c2n1 [Example 2, 4-(3,4-Dichlorobenzylamino)-2-methylquinoline-8-sulfonamide] | ≤ 1 µM | ≤ 1000 µM
Cc1cc(NCc2ccc(Cl)c(Cl)c2)c2cccc(N3CCNCC3)c2n1 [Example 18, (3,4-Dichlorobenzyl)-(2-methyl-8-piperazin-1-yl-quinolin-4-yl)-amine dihydrochloride] | ≤ 0.1 µM | ≤ 1 µM
Cc1cc(NCc2ccc(Cl)c(Cl)c2)c2cccc(S(=O)(=O)Nc3ccc(Cl)cc3)c2n1 [Example 4, 4-(3,4-Dichlorobenzylamino)-2-methylquinoline-8-sulfonic (4-chlorophenyl)-amide] | ≤ 1 µM | ≤ 100 µM
CN(C)c1cc(NCc2ccc(Cl)cc2Cl)c2ccccc2n1 [Example 96, N*4*-(2,4-Dichlorobenzyl)-N*2*,N*2*-dimethylquinoline-2,4-diamin] | ≤ 1 µM | ≤ 10 µM
C=CCN1CCCC[C@H]1[C@@H](Nc1cc(C)nc2c(OCCN)cccc12)c1ccccc1 [Example 34, [(S)—((S)-1-Allylpiperidin-2-yl)-phenylmethyl]-[8-(2-aminoethoxy)-2-methylquinolin-4-yl]-amine] | ≤ 10 µM | ≤ 100 µM
Cc1cc(NCc2ccc(Cl)c(Cl)c2)c2cccc(OCC(C)C)c2n1 [Example 51, (3,4-Dichlorobenzyl)-(8-isobutoxy-2-methylquinolin-4-yl)-amine] | ≤ 1 µM | ≤ 1 µM
CCNc1cccc2c(NCc3ccc(Cl)c(Cl)c3)cc(C)nc12 [Example 9, N*4*-(3,4-Dichlorobenzyl)-N*8*-ethyl-2-methylquinolin-4,8-diamine] | ≤ 0.1 µM | ≤ 1 µM
Cc1ccc(S(=O)(=O)N2CCN(c3cccc4c(NCc5ccc(Cl)c(Cl)c5)cc(C)nc34)CC2)cc1 [Example 17, (3,4-Dichlorobenzyl)-{2-methyl-8-[4-(toluene-4-sulfonyl)-piperazin-1-yl]-quinolin-4-yl}-amine] | ≤ 1 µM | ≤ 10 µM
COc1cccc2c(NC(CN3CCCC3)c3ccc(Cl)cc3)cc(C)nc12 (stereo not shown) [Example 67, [1-(4-Chloro-phenyl)-2-pyrrolidin-1-yl-ethyl]-(8-methoxy-2-methyl-quinolin-4-yl)-amine] | ≤ 1 µM | ≤ 10 µM
Cc1cc(NCc2ccc(Cl)c(Cl)c2)c2cccc(OCCNS(=O)(=O)Cc3ccccc3)c2n1 [Example 32, N-{2-[4-(3,4-Dichloro-benzylamino)-2-methylquinolin-8-yloxy]-ethyl}-C-phenyl-methanesulfonamide] | ≤ 0.1 µM | ≤ 1 µM
Cc1cc(N[C@@H](c2ccccc2)[C@@H]2CCCCN2)c2cccc(OCCNS(C)(=O)=O)c2n1 [Example 37, N-(2-{2-Methyl-4-[((S)-phenyl-(S)-piperidin-2-yl-methyl)-amino]-quinolin-8-yloxy}-ethyl)methanesulfonamide dihydrochloride] | ≤ 0.1 µM | ≤ 1 µM
COc1cccc2c(NC(c3ccncc3)c3ccc(Cl)cc3)cc(C)nc12 (stereo not shown) [Example 73, [(4-Chlorophenyl)-pyridin-4-ylmethyl]-(8-methoxy-2-methylquinolin-4-yl)-amine] | ≤ 1 µM | ≤ 1 µM
COc1cccc2c(N[C@@H](C)c3ccc(Cl)cc3)cc(C)nc12 [Example 57, [(S)-1-(4-Chlorophenyl)-ethyl]-(8-methoxy-2-methylquinolin-4-yl)-amine] | ≤ 10 µM | ≤ 100 µM
CCCOc1cccc2c(NCc3ccc(Cl)c(Cl)c3)cc(C)nc12 [Example 43, (3,4-Dichlorobenzyl)-(2-methyl-8-propoxyquinolin-4-yl)-amine] | ≤ 0.1 µM | ≤ 1 µM
CN(C)c1cc(NCc2ccccc2)c2ccccc2n1 [Example 94, N*4*-Benzyl-N*2*,N*2*-dimethylquinoline-2,4-diamine] | ≤ 10 µM | ≤ 100 µM
COc1cccc2c(NC(CN)c3ccccc3)cc(C)nc12 (stereo not shown) [Example 75, N*1*-(8-Methoxy-2-methylquinolin-4-yl)-1-phenylethane-1,2-diamine] | ≤ 1 µM | ≤ 1 µM
COc1cccc2c(NC(c3ccccc3)c3ccc(Cl)cc3)cc(C)nc12 (stereo not shown) [Example 64, [(4-Chlorophenyl)-phenylmethyl]-(8-methoxy-2-methylquinolin-4-yl)-amine] | ≤ 10 µM | ≤ 10 µM
Cc1cc(NCc2ccc(Cl)c(Cl)c2)c2cccc(N(S(C)(=O)=O)S(C)(=O)=O)c2n1 [Example 11, N-[4-(3,4-Dichlorobenzylamino)-2-methylquinolin-8-yl]-bis-methanesulfonamide] | ≤ 10 µM | ≤ 100 µM
Cc1cc(NCc2ccc(Cl)c(Cl)c2)c2cccc(OCCN3CCCC3)c2n1 [Example 52, (3,4-Dichlorobenzyl)-[2-methyl-8-(2-pyrrolidin-1-yl-ethoxy)-quinolin-4-yl]-amine] | ≤ 0.1 µM | ≤ 1 µM
Cc1cc(NCc2ccc(Cl)c(Cl)c2)c2cccc(NC(=O)c3ccccc3)c2n1 [Example 10, N-[4-(3,4-Dichlorobenzylamino)-2-methylquinolin-8-yl]-benzamide] | ≤ 1 µM | ≤ 100 µM
COc1cccc2c(NC(CN3CCCCC3)c3ccc(Cl)cc3)cc(C)nc12 (stereo not shown) [Example 66, [1-(4-Chlorophenyl)-2-piperidin-1-yl-ethyl]-(8-methoxy-2-methylquinolin-4-yl)-amine] | ≤ 10 µM | ≤ 10 µM
Cc1cc(NCc2ccc(Cl)c(Cl)c2)c2cccc(N)c2n1 [Example 5, N*4*-(3,4-Dichlorobenzyl)-2-methylquinoline-4,8-diamine] | ≤ 0.1 µM | ≤ 0.1 µM
COc1cccc2c(N[C@@H](c3ccccc3)[C@@H]3CCCCN3)cc(C)nc12 [Example 54, (8-Methoxy-2-methylquinolin-4-yl)-((S)-phenyl-(S)-piperidin-2-yl-methyl)-amine] | ≤ 1 µM | ≤ 1 µM
